Assay results: publication PMC8950706, “Influence of Substitutions in the Binding Motif of Proline-Rich Antimicrobial Peptide ARV-1502 on 70S Ribosome Binding and Antimicrobial Activity” (International Journal of Molecular Sciences, 2022)
Converted amounts (≈) assume the structure as drawn. Marks after values point to notes of the source that are not given here. Square brackets hold non-standard residues; d marks the D form. Ends that are not written are not given here. Peptide text beside a SMILES is read from it. Ac6c = NC1(C(=O)O)CCCCC1

Assays:
[1] = system: E. coli BW25113; assay: MIC, liquid broth micro dilution, wild type; format: cell-based, Escherichia coli; details: for Minimal Inhibitory Concentration, 25% MHB2, wt / Minimal Inhibitory Concentration, 33% TSB, wt: BW25113, 20 h
Experimental: (§1) MIC values were determined using a liquid broth micro dilution assay in sterile 96-well plates (polystyrene F-bottom, Greiner Bio-One GmbH) and a total volume of 100 μL per well. Aqueous peptide solutions (10 g/L) were serially twofold diluted in 25% Mueller-Hinton broth 2 (25% MBH2) or 33% tryptic soy broth (33% TSB) starting at a peptide concentration of 128 mg/L (50 μL/well). Overnight cultures of bacteria grown in 25% MHB2 (or 33% TSB) were diluted 30-fold in 25% MHB2 (or 33% TSB). After an incubation period of 4 h (37 °C, 200 rpm), cells were diluted to 1.5 × 10^7 cfu/mL, based on a McFarland test, and 50 μL were added to each well (final concentration of 7.5 × 10^6 […]). The plates were incubated (37 °C, 20 h) and the optical density was recorded at 595 nm using a microplate reader ([…]^TM, Beckmann Coulter). The MIC was defined as the lowest peptide concentration preventing visible bacterial growth.

[2] = system: E. coli 70S ribosome; assay: Competitive FP binding screening assay with Cf-ARV-1502 (relative FP); design: species or system E. coli BW25113; details: for Inhibition of Cf-ARV-1502 binding to the 70S ribosome (in words): Figure 3: peptide concentration 1.2 µmol/L; for Ribosome Binding (%): competitive ribosome binding against Cf-ARV-1502 (relative FP; values match 1.2 µmol/L peptide), low value = strong competition
Experimental: E. coli 70S ribosomes were prepared using a previously described protocol that was slightly modified. Briefly, E. coli BW25113 was cultivated in Luria-Bertani (LB) medium and cells were harvested after reaching an optical density of ~4 at 600 nm by centrifugation (5000× g, 15 min, 4 °C, Rotor JLA 8.100, Avanti J-20 XP, Beckmann Coulter, Krefeld, Germany). The cell pellets were frozen and stored at −80 °C. Cells were resuspended in ribosome buffer (2 mL/g cells; 20 mmol/L HEPES-KOH, 6 mmol/L MgCl2, 30 mmol/L NH4Cl, 4 mmol/L 2-mercaptoethanol, pH 7.6). Lysozyme (0.25 g/L cell suspension) was added, and the mixture was incubated on ice for 30 min. Cells were disrupted using the bead mill homogenizer FastPrep-24™ 5G (40 s, 4 m/s, 6 cycles, MP Biomedicals Germany GmbH, Eschwege, Germany) and zirconia/silica beads (0.1 mm diameter). The lysate was centrifuged (1500× g, 5 min, 4 °C, Rotor S4180, Allegra 21R, Beckmann Coulter) and the supernatant was incubated with DNase (5 U/mL) on ice for 60 min. The cell debris was removed by two centrifugation steps (16,000× g, 30 min, 4 °C followed by 32,000× g, 60 min, 4 °C, Rotor JA 30.50 Ti, Avanti J-30I, Beckmann Coulter). The ribosome was pelleted by ultracentrifugation (165,000× g, 17 h, 4 °C, Rotor 70 Ti, Optima LE-80K, Beckmann Coulter), resuspended in ribosome buffer (0.1 mL/g pellet), and stored at −80 °C. The ribosome concentration was determined by recording the absorbance of RNA at 260 nm (NanoPhotometer NP80, Implen GmbH, München, Germany) assuming that 1 AU corresponds to a ribosome concentration of 28 nmol/L. The molecular weight of the E. coli 70S ribosome was assumed to be 2.3 MDa.
E. coli 70S ribosomes and Cf-ARV-1502 were incubated with four different concentrations of unlabeled peptides chosen based on the IC50 curves of reference peptide ARV-1502. Each peptide was diluted in ribosome buffer to obtain a concentration of 4.8 µmol/L and transferred to a 384-well-plate. Peptides were then twofold serially diluted in four steps from 4.8 to 0.6 µmol/L (20 µL). The ribosome extract was diluted in ribosome buffer to reach a concentration of 2 µmol/L and 10 µL were added to each well to obtain a final ribosome concentration of 0.5 µmol/L. Plates were centrifuged (2 min, 500× g, Rotor S2096, Allegra^TM 21R, Beckmann Coulter) and incubated at 28 °C for 90 min. Cf-labeled ARV-1502 was added (10 µL; final concentration of 20 nmol/L) and the plates were again centrifuged and incubated (28 °C, 90 min). After incubation, fluorescence polarization was recorded on a […]^TM microplate reader (λex = 485 nm, λem = 535 nm).
On each plate 12 minimum (30 µL ribosome buffer and 10 µL Cf-ARV-1502) and 12 maximum (20 µL ribosome buffer, 10 µL ribosome solution and 10 µL Cf-ARV-1502) control samples were added. Fluorescence polarization of screening samples was normalized to the fluorescence polarization of these control samples. All screening samples were measured in triplicates and the whole experiment was repeated once on another day.

[3] = system: E. coli BW25113 ∆sbmA ∆mdtM; format: cell-based, Escherichia coli; details: ∆sbmA ∆mdtM compared with ∆sbmA
Experimental: as §1

[4] = system: E. coli 70S ribosome; assay: Cell-free GFP expression assay (in vitro translation); format: biochemical; details: for In Vitro Translation (%): GFP expression remaining relative to control, concentration not given (higher concentration 50 µmol/L); for Reduction of GFP expression, 50 µmol/L peptide: cell-free expression, peptide-to-ribosome ratio of 25, GFP fluorescence, 37 °C
Excerpt: Possible effects of ARV-1502 and its substituted analogs on the in vitro translation of the green fluorescent protein (GFP) were probed using the NEB PureExpress Delta RF123 Kit (New England Biolabs, Ipswich, MA, USA). The sfGFP DNA template was amplified from pY71sfGFP plasmid by PCR introducing an UAA stop codon. Release factor 1 (RF1) was 50fold diluted in Pure System Buffer (PSB) containing magnesium acetate (1 mol/L), monopotassium phosphate (0.5 mol/L, pH 7.3), potassium glutamate (1 mol/L), NH4Cl (1 mol/L), calcium chloride (0.5 mol/L), spermidine (1 mol/L), putrescine (0.1 mol/L), and DTT (0.1 mol/L). Each reaction used 35 ng of sfGFP template. Peptides were added at a final concentration of 5 µmol/L and 50 µmol/L. The reaction was started by adding Kit solutions A (2 µL) and B (1.5 µL), diluted RF1 (0.5 µL), sfGFP template (0.25 µL or water as negative control), PSB (0.25 µL), and peptide (0.5 µL or water), mixed, transferred into a black 384-well plate (flat bottom, Greiner Bio-One GmbH), and incubated (37 °C, 2 h). The fluorescence was recorded every 10 min (λexc = 485 nm, λem = 535 nm) in a microplate reader (Gemini EM, Molecular Devices LLC, San Jose, CA, USA).

Compound | MIC / activity against E. coli ([1]; medium not given) | Inhibition of Cf-ARV-1502 binding to the 70S ribosome (in words) [2] | Effect of the additional mdtM knockout on antibacterial activity [3] | In Vitro Translation (%) [4] [%] | Reduction of GFP expression, 50 µmol/L peptide [4] | MIC (µg/mL), Table 3 ([1]; BW25113, 4 h) [µg/mL] | Minimal Inhibitory Concentration, 25% MHB2, wt [1] [µg/mL] | Minimal Inhibitory Concentration, 33% TSB, wt [1] | Ribosome Binding (%) [2] [%] | MIC / activity against E. coli ([1]; BW25113, 4 h) [µg/mL]
6: Chex-RPDDPRPYLPRPRPPRPVR-NH2 ([Ac6c]RPDDPRPYLPRPRPPRPVR-NH2; N-terminus assumed; SMILES CC(C)C[C@H](NC(=O)[C@H](Cc1ccc(O)cc1)NC(=O)[C@@H]1CCCN1C(=O)[C@H](CCCNC(=N)N)NC(=O)[C@@H]1CCCN1C(=O)[C@H](CC(=O)O)NC(=O)[C@H](CC(=O)O)NC(=O)[C@@H]1CCCN1C(=O)[C@H](CCCNC(=N)N)NC(=O)C1(N)CCCCC1)C(=O)N1CCC[C@H]1C(=O)N[C@@H](CCCNC(=N)N)C(=O)N1CCC[C@H]1C(=O)N[C@@H](CCCNC(=N)N)C(=O)N1CCC[C@H]1C(=O)N1CCC[C@H]1C(=O)N[C@@H](CCCNC(=N)N)C(=O)N1CCC[C@H]1C(=O)N[C@H](C(=O)N[C@@H](CCCNC(=N)N)C(N)=O)C(C)C) [Peptide 6] | low activity against E. coli | inhibited Cf-ARV-1502 | – | – | – | – | – | – | – | –
CC(C)C[C@H](NC(=O)[C@H](Cc1ccc(O)cc1)NC(=O)[C@@H]1CCCN1C(=O)[C@H](CCCNC(=N)N)NC(=O)[C@@H]1CCCN1C(=O)[C@H](CO)NC(=O)[C@H](CCCCN)NC(=O)[C@@H]1CCCN1C(=O)[C@H](CCCNC(=N)N)NC(=O)C1(N)CCCCC1)C(=O)N1CCC[C@H]1C(=O)N[C@@H](CCCNC(=N)N)C(=O)N1CCC[C@H]1C(=O)N[C@@H](CCCNC(=N)N)C(=O)N1CCC[C@H]1C(=O)N1CCC[C@H]1C(=O)N[C@@H](CCCNC(=N)N)C(=O)N1CCC[C@H]1C(=O)N[C@H](C(=O)N[C@@H](CCCNC(=N)N)C(N)=O)C(C)C [Peptide 29] (H-[Ac6c]RPKSPRPYLPRPRPPRPVR-NH2; N-terminus and C-terminus assumed) | – | – | no effect | 74.3 ± 10.1 | ~ 25% | 16 (≈ 6.54 µM) | 16 | 32 µg/mL | 78.5 ± 3.3 | –
CC(C)[C@H](NC(=O)[C@@H]1CCCN1C(=O)[C@H](CCCNC(=N)N)NC(=O)[C@@H]1CCCN1C(=O)[C@@H]1CCCN1C(=O)[C@H](CCCNC(=N)N)NC(=O)[C@@H]1CCCN1C(=O)[C@H](CCCNC(=N)N)NC(=O)[C@@H]1CCCN1C(=O)[C@H](CCCCN)NC(=O)[C@H](Cc1ccc(O)cc1)NC(=O)[C@@H]1CCCN1C(=O)[C@H](CCCNC(=N)N)NC(=O)[C@@H]1CCCN1C(=O)[C@H](CCCCN)NC(=O)[C@H](CCCCN)NC(=O)[C@@H]1CCCN1C(=O)[C@H](CCCNC(=N)N)NC(=O)C1(N)CCCCC1)C(=O)N[C@@H](CCCNC(=N)N)C(N)=O [Peptide 37] (H-[Ac6c]RPKKPRPYKPRPRPPRPVR-NH2; N-terminus and C-terminus assumed) | – | – | – | 63.4 ± 13.3 | ~ 40% | 16 (≈ 6.39 µM) | 16 | 64 µg/mL | 56.7 ± 2.6 | –
CC(C)C[C@H](NC(=O)[C@H](Cc1ccc(O)cc1)NC(=O)[C@@H]1CCCN1C(=O)[C@H](CCCNC(=N)N)NC(=O)[C@@H]1CCCN1C(=O)[C@H](CCCCN)NC(=O)[C@H](CCCCN)NC(=O)[C@@H]1CCCN1C(=O)[C@H](CCCNC(=N)N)NC(=O)C1(N)CCCCC1)C(=O)N1CCC[C@H]1C(=O)N[C@@H](Cc1ccccc1)C(=O)N1CCC[C@H]1C(=O)N[C@@H](CCCNC(=N)N)C(=O)N1CCC[C@H]1C(=O)N1CCC[C@H]1C(=O)N[C@@H](CCCNC(=N)N)C(=O)N1CCC[C@H]1C(=O)N[C@H](C(=O)N[C@@H](CCCNC(=N)N)C(N)=O)C(C)C [Peptide 46] (H-[Ac6c]RPKKPRPYLPFPRPPRPVR-NH2; N-terminus and C-terminus assumed) | – | – | – | 96.6 ± 3.1 | did not inhibit GFP expression | – | 16 | 64 * µg/mL | 87.1 ± 3.4 | 16 (≈ 6.45 µM)
CC(C)C[C@H](NC(=O)[C@H](Cc1ccc(O)cc1)NC(=O)[C@@H]1CCCN1C(=O)[C@H](CCCNC(=N)N)NC(=O)[C@@H]1CCCN1C(=O)[C@H](Cc1ccccc1)NC(=O)[C@H](Cc1ccccc1)NC(=O)[C@@H]1CCCN1C(=O)[C@H](CCCNC(=N)N)NC(=O)C1(N)CCCCC1)C(=O)N[C@@H](CCCCN)C(=O)N[C@@H](CCCNC(=N)N)C(=O)N1CCC[C@H]1C(=O)N[C@@H](CCCNC(=N)N)C(=O)N1CCC[C@H]1C(=O)N1CCC[C@H]1C(=O)N[C@@H](CCCNC(=N)N)C(=O)N1CCC[C@H]1C(=O)N[C@H](C(=O)N[C@@H](CCCNC(=N)N)C(N)=O)C(C)C [Peptide 98] (H-[Ac6c]RPFFPRPYLKRPRPPRPVR-NH2; N-terminus and C-terminus assumed) | – | poor competitor of Cf-ARV-1502 | – | 56.2 ± 2.1 | – | 8 to 16 | 8 to 16 | 32 µg/mL | 98.3 ± 1.5 | –
CC(C)[C@H](NC(=O)[C@@H]1CCCN1C(=O)[C@H](CCCNC(=N)N)NC(=O)[C@@H]1CCCN1C(=O)[C@@H]1CCCN1C(=O)[C@H](CCCNC(=N)N)NC(=O)[C@@H]1CCCN1C(=O)[C@H](CCCNC(=N)N)NC(=O)[C@@H]1CCCN1C(=O)[C@H](CCCCN)NC(=O)[C@H](CO)NC(=O)[C@@H]1CCCN1C(=O)[C@H](CCCNC(=N)N)NC(=O)[C@@H]1CCCN1C(=O)[C@H](CCCCN)NC(=O)[C@H](CC(=O)O)NC(=O)[C@@H]1CCCN1C(=O)[C@H](CCCNC(=N)N)NC(=O)C1(N)CCCCC1)C(=O)N[C@@H](CCCNC(=N)N)C(N)=O [Peptide 125] (H-[Ac6c]RPDKPRPSKPRPRPPRPVR-NH2; N-terminus and C-terminus assumed) | – | – | – | 104.3 ± 9.3 | slightly improved GFP translation | 128 (≈ 53 µM) | 128 | – | 86.3 ± 2.5 | –
